The record followed here is PubChem BioAssay (NCI).

Several values for one entry are separate records, joined by “and”; a condition that tells them apart may be missing. Equal values may be shown once.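 Test compounds were applied to cells in 96-well plates for 48 hours at 5 doses. GI50 = concentration required for 50% inhibition of growth. TGI: total growth inhibition.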

Among the test systems are MCF7 breast; BT-549 breast; RXF 393 renal; MOLT-4 leukemia; CCRF-CEM leukemia; RPMI-8226 leukemia; UACC-62 melanoma; A498 renal; SNB-19 CNS; DU-145 prostate.
Holding throughout (assay): NCI-60 cell line screen, 48 h

Turning to `Nc1c(C(=O)c2cccc(C#CCN3CCCCC3)c2)cnn1-c1ccc(F)cc1`, the GI50 in the assay on MCF7 breast was 19.1 µM; in the assay on BT-549 breast it was more than 13.3 µM; in the assay on RXF 393 renal, 14 µM; in the assay with MOLT-4 leukemia, 21.2 µM; in the assay with CCRF-CEM leukemia, more than 25 µM; in the assay with RPMI-8226 leukemia, more than 17 µM. Moreover, the GI50 in the assay with UACC-62 melanoma, with A498 renal, in the assay with SNB-19 CNS and in the assay on DU-145 prostate was more than 25 µM in each case. The TGI in the assay on MCF7 breast, in the assay on BT-549 breast, in the assay with RXF 393 renal, in the assay with MOLT-4 leukemia, in the assay with CCRF-CEM leukemia and in the assay with RPMI-8226 leukemia was more than 25 µM each time. The TGI with UACC-62 melanoma, in the assay on A498 renal, with SNB-19 CNS and in the assay with DU-145 prostate was more than 25 µM in each case.

In the case of `COc1cccc(CNc2ncnc3c2ncn3C2OC(CO)C(O)C2O)c1O` (configuration not stated), the GI50 in the assay with MCF7 breast is 0.369 µM; with BT-549 breast, 0.0205 µM; with RXF 393 renal it was 0.0438 µM; in the assay on MOLT-4 leukemia it was 0.353 µM; in the assay on RPMI-8226 leukemia, 0.319 µM; in the assay with UACC-62 melanoma, 0.347 µM. Further, the results for the GI50 in the assay with A498 renal, with SNB-19 CNS and in the assay on DU-145 prostate were 0.205 µM, 0.48 µM and 0.0733 µM, respectively. Further, the TGI in the assay with MCF7 breast is more than 100 µM; in the assay on BT-549 breast, 0.0978 µM; with RXF 393 renal, 0.36 µM; with MOLT-4 leukemia it was more than 44 µM; with CCRF-CEM leukemia it was more than 100 µM; in the assay on RPMI-8226 leukemia, more than 100 µM. The TGI with UACC-62 melanoma was more than 31.8 µM; in the assay with A498 renal it was 2.21 µM; in the assay with SNB-19 CNS, more than 100 µM; with DU-145 prostate, 1.22 µM.

Turning to `NC(=O)c1cccnc1`, the GI50 in the assay with MCF7 breast is more than 100 µM; in the assay with BT-549 breast, more than 100 µM; in the assay with RXF 393 renal it was more than 100 µM; with MOLT-4 leukemia, more than 100 µM; in the assay with CCRF-CEM leukemia, 5.99 µM; with RPMI-8226 leukemia, more than 100 µM. The GI50 in the assay on UACC-62 melanoma, in the assay with A498 renal, with SNB-19 CNS and in the assay with DU-145 prostate was more than 100 µM in each case. Further, the TGI in the assay on MCF7 breast, in the assay with BT-549 breast, in the assay with RXF 393 renal, in the assay on MOLT-4 leukemia, with CCRF-CEM leukemia and with RPMI-8226 leukemia was more than 100 µM throughout. For the same compound, the TGI with UACC-62 melanoma, in the assay with A498 renal, in the assay with SNB-19 CNS and in the assay with DU-145 prostate was more than 100 µM in each case.

On to `FC(F)(F)c1ccc(-c2nn3ncccc3c2-c2ccnc(Nc3ccc4c(c3)OCCO4)n2)cc1`, for which the GI50 in the assay with MCF7 breast is 8.04 µM; with BT-549 breast, 17.3 µM; in the assay with RXF 393 renal, 4.4 µM; in the assay on MOLT-4 leukemia it was 6.11 µM; in the assay with CCRF-CEM leukemia, 10.8 µM; in the assay with RPMI-8226 leukemia, 5.97 µM. Besides, the GI50 in the assay with UACC-62 melanoma was 10 µM; in the assay on A498 renal, 4.68 µM; in the assay with SNB-19 CNS it was more than 25 µM; with DU-145 prostate it was 16.4 µM. Also, the TGI with MCF7 breast is more than 25 µM; in the assay on BT-549 breast it was more than 25 µM; in the assay on RXF 393 renal, more than 17 µM; in the assay with MOLT-4 leukemia, more than 23.3 µM; in the assay with CCRF-CEM leukemia, more than 25 µM; in the assay on RPMI-8226 leukemia it was more than 20.4 µM. In addition, the TGI in the assay with UACC-62 melanoma, in the assay on A498 renal, in the assay with SNB-19 CNS and with DU-145 prostate was more than 25 µM in each case.

Take `CSc1ncnc2c1ncn2CC(=O)C1CCC2C3CCC4=CC(=O)CCC4(C)C3CCC12C` (configuration not stated): the TGI in the assay on MCF7 breast is 14.9 µM; with BT-549 breast, 9.89 µM; in the assay on RXF 393 renal, more than 100 µM; in the assay on MOLT-4 leukemia, 4.93 µM; in the assay on CCRF-CEM leukemia, 2.16 µM; with RPMI-8226 leukemia it was 5.21 µM. Besides, the TGI with UACC-62 melanoma is 14 µM; in the assay on A498 renal, 38.4 µM; with SNB-19 CNS it was more than 100 µM; in the assay on DU-145 prostate, more than 96.7 µM.

For the compound `C=CC(C)(C)n1cc(C2=C(O)C(=O)C(c3cn(C(C)(C)C=C)c4ccccc34)=C(O)C2=O)c2ccccc21`, the TGI with MCF7 breast was 12.4 µM; in the assay on BT-549 breast, 3.63 µM; with RXF 393 renal it was 3.87 µM; in the assay with MOLT-4 leukemia, more than 45.8 µM; in the assay on CCRF-CEM leukemia it was more than 100 µM; in the assay with RPMI-8226 leukemia, 40.2 µM. Moreover, the TGI in the assay with UACC-62 melanoma amounted to 4.33 µM; with A498 renal it was 34.5 µM; in the assay with SNB-19 CNS it was 7.38 µM; with DU-145 prostate it was 18.9 µM.

In the case of `CCCCCCNCCCNc1c2cc(OC)ccc2nc2cccc([N+](=O)[O-])c12`, the GI50 in the assay with MCF7 breast was 0.0348 µM; in the assay on BT-549 breast, 1.04 µM; with MOLT-4 leukemia it was 0.0514 µM; with CCRF-CEM leukemia, 0.118 µM; in the assay with RPMI-8226 leukemia, 0.0646 µM; in the assay on UACC-62 melanoma it was 0.186 µM. Moreover, the GI50 with A498 renal was 0.227 µM; in the assay with SNB-19 CNS, 0.206 µM; with DU-145 prostate it was 0.162 µM. Moreover, the TGI in the assay on MCF7 breast was 0.398 µM; with BT-549 breast, 2.3 µM and 2.27 µM; in the assay with RXF 393 renal it was 0.111 µM; with CCRF-CEM leukemia, 0.289 µM and 0.538 µM; in the assay with RPMI-8226 leukemia it was 0.14 µM and 0.348 µM; in the assay on UACC-62 melanoma, 0.305 µM and 0.412 µM. The TGI in the assay on A498 renal is 3.6 µM and 0.462 µM; with SNB-19 CNS, 3.86 µM and 1.02 µM; in the assay on DU-145 prostate it was 0.338 µM and 1.36 µM.

As to `Cc1cc(CCl)c(C)cc1CCl`, the GI50 with MCF7 breast is 0.281 µM; with BT-549 breast, 4.34 µM; with RXF 393 renal, 2.93 µM; in the assay with MOLT-4 leukemia, 0.573 µM; with CCRF-CEM leukemia it was 0.351 µM; in the assay with RPMI-8226 leukemia, 1.63 µM. For the same compound, the GI50 with UACC-62 melanoma is 1.93 µM; in the assay on A498 renal it was 1.79 µM; in the assay on SNB-19 CNS, 3.75 µM; in the assay with DU-145 prostate, 0.733 µM. The TGI in the assay on MCF7 breast is 2.32 µM; with BT-549 breast, 18.9 µM; in the assay with RXF 393 renal it was 8.72 µM; in the assay with MOLT-4 leukemia it was 8.39 µM; in the assay on CCRF-CEM leukemia it was 5.61 µM; in the assay on RPMI-8226 leukemia, 6.9 µM. In addition, the TGI came out at 7.59 µM with UACC-62 melanoma, 3.96 µM in the assay on A498 renal, 17.6 µM in the assay with SNB-19 CNS and 2.92 µM in the assay on DU-145 prostate.

Turning to `CC(Oc1ccc(Oc2cnc3ccc(Cl)cc3n2)cc1)C(=O)O` (configuration not stated), the TGI with MCF7 breast, in the assay with BT-549 breast, in the assay on RXF 393 renal, with MOLT-4 leukemia, with CCRF-CEM leukemia and in the assay with RPMI-8226 leukemia was more than 100 µM each time. The TGI in the assay with UACC-62 melanoma, with A498 renal, in the assay on SNB-19 CNS and in the assay on DU-145 prostate was more than 100 µM throughout.
